The subject of test [1] is B-CLL cells of patients with no p53 aberrations. Briefly: Influence of the p53 inhibitor pifithrin-alpha on drug susceptibility (flow cytometry, AnnexinV/7-AAD). Type of test: cell-based, human. How it is done:
(§1) Viability was measured using flow-cytometry (AnnexinV/7-AAD,-/-). […] The length of the box corresponds to the interquartile range (IQR) and is the difference between the 75th and 25th percentiles. The horizontal line in the box is the median. […] Viability of B-CLL cells was assessed using a flow-cytometer (Annex-inV/7-AAD -/-). The length of the box corresponds to the interquartile range (IQR) and is the difference between the 75th and 25th percentiles. The horizontal line in the box is the median. […] Day zero is the day of engraftment with 3x10^6 lymphocytes derived from TCL1 transgenic mice with overt leukemia. […] Blood samples were collected from the tail vein of the respective animal and whole blood was analysed for CD5/CD19 positive cells using a flow-cytometer. […] Dashed line is 0.04 mg/kg and black line is 0.05 mg/kg daily for two weeks.
B-CLL cells of patients with no p53 aberrations were treated with 160 nM actinomycin w or w/o 30 µM pifithrin-alpha.
(In general: Flow cytometry measures light scatter and fluorescence of single cells or particles in a stream.)

The test system of test [2] is engrafted CLL mice (CD5/CD19 cells). Briefly: Treatment study 02: reduced actinomycin D concentrations in murine B-CLL model. The test is classed as in vivo. How it is done:
(§2) The original Eµ-TCL1a transgenic mice which were generously provided by C. Croce (Ohio) have been back-crossed for > 9 generations to C57BL/6 mice. Mice were killed at stated ages, or when signs of illness developed, and samples for histology, flow cytometry, and miRNA isolation were collected. The tumor load in all lymphoid organs was assessed by flow cytometry following staining for the surface markers CD19, CD5, and IgM. Approval from the Austrian Animal Ethics committee was obtained prior to performing the experiments. Engrafted mice were produced by injecting 3 x 10^6 lymphocytes of a leukemic Eµ-TCL1a transgenic mouse into 30 Black 6 mice from Charles River Laboratories, Sulzfeld, Germany.
In example 1 a treatment schedule of 0.06 mg/kg daily for two weeks was used. […] To assess the tumour load blood samples were consecutively taken from the tail vein.

Test [3] has as its system colon cancer cell line HCT116. The experiment in a line: Sensitivity of isogenic HCT116 with or without p53 deletion. The test is classed as cell-based.
Test [4] concerns engrafted wildtype (C57BL/6) mice (CD5+/CD19+ cells). Briefly: Treatment study 03: head to head comparison of actinomycin D and fludarabine. Type of test: in vivo. The conditions noted are these: for 50 % survival time after start of treatment / tumour load reduction: actinomycin D 0.06 mg/kg daily for 14 days, fludarabine 34 mg/kg for 5 days; for tumour load reduction: day 22 after treatment start, vs untreated mice. How it is done:
as §1, §2
At day 22 after treatment start tumour load was assessed compared to that of the tumour load of untreated mice.

The subject of test [5] is B-CLL cells bearing the chromosomal aberration del(17p)13. The experiment in a line: Viability / apoptosis of del(17p)13 B-CLL cells (flow cytometry, AnnexinV/7-AAD). Particulars: for viability reduction: 160 nM. The test is classed as cell-based, human. How it is done: as §1
The supplied substances were solved in 100 µl medium at 37°C 90 min on a rotation shaker and transferred to a 96-well plated. Then 100µl medium containing 1.5 x 10^6 B-CLL cells was added. Final concentration of the substances was 20 µM. After a incubation time of 48 h 50 µl XTT-dye was added and absorption measured as above. […] Only substances that reduced the cell metabolism/dye development > 50 % were counted. The reason for this higher cut off value is the low proliferative activity of B-CLL cells who are mainly in Go arrest. Positive substances were double checked with Annex-inV/7-AAD apoptosis/necrosis staining in CD19+/CD5+ positive cells on a flow cytometer.

Test [6] has as its system engrafted B-CLL mice (CD5/CD19 cells). As for the experimental part: as §2
First a treatment study included 10 mice.
To assess tumour load development after treatment blood samples were collected from the tail vein (Fig. 4).

A further test relates to B-CLL cells. The experiment in a line: IC50 determination (XTT dye, 48 h). Type of test: cell-based, human. How it is done: 1.5 x 10^6 B-CLL cells and 0.4 x 10^6 CEM-C7H2 cells per well were incubated with different concentrations of the respective substance (0,2, 0,5, 1, 2, 5, 10, 20 µM) and incubated for 48 h. After this XTT-dye solution was added as described above and absorption was measured at 450 nm with 655 nm as reference wavelength. Concentrations that led to a 50 % metabolism reduction were monitored as IC50 value.
Finally, the substances were tested for their toxicity in cell lines from different parts of the human body such as liver (HepG2), kidney (HEK-293), lung (SHP-77), skin keratinocytes (WS-1) and in human umbilical vein endothelial cells from 3 different donors. […] For these substances the mean IC50 (48h) in 4 B-CLL cells samples from 4 different donors was determined and the substances were numbered beginning with the lowest IC50 in B-CLL cells.

Read-outs that look alike come from different tables or passages of the source. Starred links: 1 amine or outer side, 2 acyl side, 3 side chain; linkers in the order of their positions; H or OH if unused. Positions of bridges follow the written chain, without caps; N, C: chain ends. Non-standard residues stand in square brackets, D forms with d. Residues, ends and D or L forms follow the SMILES beside them. Chains are numbered I, II in the order given. Actinocin(9to1) = Cc1c2oc3c(C)ccc(C(=O)[*:1])c3nc-2c(C(=O)[*:2])c(N)c1=O; NMeV = CN[C@H](C(=O)O)C(C)C; Sar = CNCC(=O)O

For the compound `Cc1ccc(C(=O)Cn2c3c(sc2=N)CCCC3)cc1` [pifithrin-alpha], the “effect of pifithrin-alpha alone on viability of CLL cells” value in test [1] (30 µM, alone) is reported as “no effect on viability”.
For `Cc1c2oc3c(C)ccc(C(=O)N[C@@H]4C(=O)N[C@H](C(C)C)C(=O)N5CCC[C@H]5C(=O)N(C)CC(=O)N(C)[C@@H](C(C)C)C(=O)O[C@@H]4C)c3nc-2c(C(=O)N[C@@H]2C(=O)N[C@H](C(C)C)C(=O)N3CCC[C@H]3C(=O)N(C)CC(=O)N(C)[C@@H](C(C)C)C(=O)O[C@@H]2C)c(N)c1=O` [actinomycin D] (I: T[dV]P[Sar][NMeV] / II: T[dV]P[Sar][NMeV]; ester I:1-I:C, II:1-II:C; linker I:N-II:N via Actinocin(9to1)), the “tumour cells after treatment” value in test [2] (0.05 mg/kg or 0.04 mg/kg daily for two weeks, two mice each, start 47 days after engraftment) is reported as “severe reduction of tumour cells”. Besides, the “time until tumour load increased to the initial values after the first treatment” value in test [2] (0.05 or 0.04 mg/kg daily for two weeks, after first treatment) came out at 46 days. Also, the “time until CD5/CD19 counts increased again after the second treatment” value in test [2] (0.05 or 0.04 mg/kg daily for two weeks, after retreatment) amounted to 44 days. Moreover, the “effect of p53 deletion on actinomycin D susceptibility” value in test [3] was “no effect”. Besides, the “tumour load (CD5+/CD19+ cell count), Fig. 6” value in test [4] (22 days after treatment start) is “highly significant tumour load reduction”. In addition, in test [4], the “50 % survival time after start of treatment” value was 103 days. For the same compound, in test [4], the tumour load reduction result is “more than 80%”. In addition, the “viability (Fig. 1)” value in test [5] (20 nM, 48 h, 4 p53 deleted, fludarabine resistant B-CLL patients, p < 0.001) is “significant viability reduction”. The “apoptosis induced in % of B-CLL cells” value in test [5] (20 nM, within 48 h, del(17p)13 B-CLL cells (Fig. 1)) is listed as over 80%. Also, the viability reduction was over 45% in test [5] (del(17p)13 B-CLL samples derived from peripheral blood) and 38% in test [5] (one del(17p)13 sample derived from the bone marrow). Further, the apoptosis induction entry in test [5] (20 µM, three B-CLL samples of patients with del(17p)13) is given as “able to induce apoptosis in all three B-CLL cells samples”. The “survival difference to the mock treated animals (Fig. 3)” value in test [6] (0,06 mg/kg daily for two weeks vs PBS) is “highly significant”. The “time after the initial therapy until retreatment” value in test [6] (CD5/CD19 counts back at the initial value at day 135) worked out at 85 days. Also, the “CD5/CD19 count after treatment” value in test [6] (treatment at day 50, three surviving animals, tail vein blood) is reported as “A reduction of the CD5/CD19 count can be observed in all three animals”. Besides, in the test on B-CLL cells (4 B-CLL cells samples from 4 different donors, 48 h, in vitro, read-out: mean IC50 (48h)), the IC50 (as a rule, the concentration that inhibits the measured activity by half) worked out at 80 nM.
On to `CN1CC[C@H](c2c(O)cc(O)c3c(=O)cc(-c4ccccc4Cl)oc23)[C@H](O)C1` [flavopiridol], for which the synergism with pifithrin-alpha result in test [1] (with or without 30 µM pifithrin-alpha, 48 h, 160 nM actinomycin (text; Fig. 2: 20 nM), 50 nM flavopiridol, 10 µM fludarabine) is recorded as “synergistic with pifithrin-alpha”.
As to `Nc1nc(F)nc2c1ncn2[C@@H]1O[C@H](CO)[C@@H](O)[C@@H]1O` [fludarabine], in test [4], the “50 % survival time after start of treatment” value amounted to 47 days and the tumour load reduction is on record as 20%. The IC50 in the test on B-CLL cells (Homo sapiens, B-CLL, read-out: double IC50 determined for fludarabine, printed as the double IC50, unclear whether 3µM is the IC50 or its double) was 3000 nM.

The record behind these values is patent publication EP2397149A1 (Hil-Invent Ges.M.B.H., priority 2010, dated 2011).
